# Measured values published in US7687546B2, “Quaternary ammonium compound, process for producing the same, therapeutic agent for cerebrovascular disorder, and therapeutic agent for heart disease” (Activus Pharma Co., Ltd., priority 2004, dated 2010).
# Legend:
# [1] = tested on: model of myocardial ischemia-reperfusion injury; assay: Model of myocardial ischemia-reperfusion injury in rats; format: in vivo; conditions: 3 mg/kg i.v. 5 minutes before 5 minutes coronary ligation, 8 rats per group
# [2] = tested on: ouabain-induced arrhythmia model; assay: Ouabain-induced arrhythmia model in guinea pigs; format: in vivo, guinea pigs (Hartley strain); conditions: dose 3 mg/kg i.v. immediately before ouabain infusion 3 μg/0.1 ml/min
# From the text: After guinea pigs (Hartley strain, age 6 weeks) were anesthetized with urethane, induction electrodes were attached to the hind limbs and fore limbs, and standard 2-lead electrocardiograms were monitored with an animal electrocardiogram analysis system (ECG-01, Japan Energy). After confirming that the waveforms of the electrocardiogram and heart rate were within the normal range, an incision was made in the epidermis of the neck followed by inserting a breathing tube into the trachea and cannulating a polyethylene tube into the left external jugular vein and left common carotid artery.
# Immediately after administering a compound of the present invention dissolved in a physiological saline solution into the right external jugular vein, ouabain was continuously infused at 3 μg/0.1 ml/min through the cannulated polyethylene tube into the left external jugular vein using a syringe pump (Atom Syringe Pump 1235 (trade name), Atom Medical Corporation).
# In addition, the polyethylene tube cannulated in the left common carotid artery was connected to a pressure transducer (P23XL, Gould Electronics), and fed to a pressure processor signal conditioner (TA-11, Gould Electronics) to record blood pressure and heart rate on a thermal plate recorder.
# The results were assessed by comparing the dose (μg/kg) of ouabain administered until the appearance of arrhythmia and occurrence of cardiac arrest (arrhythmia is not induced even if a large dose of ouabain is administered if antiarrhythmic effects are high). Furthermore, a solvent dose group (administered only physiological saline in an amount equal to that of the test drug groups), and a positive control group administered a typical antiarrhythmic disopyramide phosphate (physiological saline solution), were also provided.
# [3] = tested on: model of myocardial ischemia reperfusion injury; assay: Model of myocardial ischemia-reperfusion injury in dogs; format: in vivo; conditions: 3 mg/kg into the femoral vein 10 minutes before 20 minutes coronary occlusion, then reperfusion
# Procedure: In order to confirm the efficacy of compounds of the present invention on myocardial infarction and arrhythmia caused by myocardial infarction, a pharmacological study was conducted using a model of myocardial ischemia reperfusion injury in dogs for the compounds used in Example 1.
# Dogs having body weights of approximately 10 kg were anesthetized with pentobarbital (trade name) (30 mg/ml/kg) followed by shaving the surgical site after starting artificial respiration. The femoral vein and femoral artery were separated followed by cannulation. The femoral vein was used as the administration route for the test substances, while the femoral artery was used to measure blood pressure.
# Next, after opening the left chest, making an incision in the pericardium and exposing the left ventricle, the left coronary artery was separated. A silk suture was passed through the coronary artery to occlude, followed by the attachment of an electromagnetic flow meter probe for measuring blood flow.
# In addition, a pair of ultrasound crystal probes was fixed in position to measure changes in ventricular wall length as a indicator of myocardial contractile force, and indwelling needle was installed for measuring left intraventricular pressure. Compounds of the present invention were administered into the femoral vein at 3 mg/kg (15% physiological saline solution) followed 10 minutes later by occluding the coronary artery for 20 minutes, and subsequently reperfusing the coronary artery. Myocardial contraction following ischemia-reperfusion was compared for each group based on a value of 100 for myocardial contraction prior to ischemic reperfusion. In addition, comparisons were also made with a solvent control group administered only physiological saline.
# [4] = tested on: guinea pigs; assay: Study of arrhythmia-inducing action in guinea pigs (without ouabain); conditions: up to 1 hour after administration, no ouabain
# [5] = tested on: middle cerebral artery occlusion and reperfusion model; assay: Cerebral infarction model: middle cerebral artery occlusion and reperfusion (infarct area, neurological symptoms, motor function); format: in vivo, rats (Crj: Wistar strain); set-up: Improvement of neurological symptoms* (total score): scale not given here; conditions: rats, average of 10 animals
# Procedure: In this example, a cerebral infarction model was prepared using rats in which reperfusion injury was induced by ischemia and then reperfusion of the middle cerebral artery using the obturator method. The efficacy of compounds of the present invention following single-dose intravenous administration at dose of 3 mg/kg was evaluated in terms of infarct area, neurological symptoms and motor function.
# In addition, Edaravone (trade name, Mitsubishi Pharma Corporation) was used as a reference compound. The compounds of the present invention were stored in a refrigerator under protection from light, while Edaravone (trade name) was stored at room temperature under protection from light.
# Compounds of present invention: 2 mL of physiological saline was added directly to tube containing 3 mg aliquots of a compound of the present invention to dissolve and prepare solutions having a concentration of 3 mg/2 mL. These samples were prepared at the time of use.
# Edaravone: Since Edaravone is an injectable solution having a concentration of 30 mg/20 mL, the required amounts were divided up and used.
# Rats: Crj: Wistar strain, males, age 7 weeks (Charles River Laboratories Japan, Inc.)
# The test compounds were administered in a single dose into the tail vein using a 1 mL syringe and 27 G injection needle immediately before the reperfusion.
# The rats were anesthetized by intraperitoneal administration of sodium pentobarbital at dose of 40 mg/kg (Nembutal (trade name), Dainippon Pharmaceutical Co., Ltd.), and a middle cerebral artery occlusion and reperfusion model was prepared in accordance with the method of Koizumi et al. (Non-Patent Document 2). Namely, the animals were warmed to 37° C. and held in the dorsal position while breathing spontaneously. A midline cervical incision was made, and then the right external carotid artery and right internal carotid artery were separated without damaging the vagus nerve. The right common carotid artery and right external carotid artery were ligated, and a suture was attached to the origin of the internal carotid artery in preparation for ligation and maintenance of occlusion following insertion of an obturator into the internal carotid artery. Moreover, a small incision was made in the right common carotid artery, an obturator provided with an approximately 17 mm silicon-coated suture was inserted into the internal carotid artery, and the internal carotid artery was ligated. Two hours after ligation, the obturator was removed under unanesthesia to reperfuse. Furthermore, flexion of the contralateral forelimb was confirmed 30 minutes after occlusion of the middle cerebral artery.
# The following neurological symptoms were evaluated 24 hours after occlusion of the middle cerebral artery according to the evaluation method of Petullo et al. (Non-Patent Document 3). Neurological symptoms consisted of flexion of the forelimbs, torso twisting, resistance when pushing on the back of the right or left shoulder (Lateral push), circling, return of the hindlimb to the floor when lifted from the floor (Hindlimb placement), behavior when the head is faced downward on an angle (Inverted angle board) and a locomotor activity test.
# Flexion of the forelimbs: flexion of the forelimbs was observed when the animals were lifted up by the tail.
# Torso twisting: Torso twisting was observed when the animals were lifted up by the tail.
# Lateral push: Resistance was observed when pushing on the back of the right or left shoulder.
# Hindlimb placement: The animals were observed as to whether or not the hindlimb immediately returns to the floor after being lifted from the floor when placed on a horizontal floor.
# locomotor activity: locomotor activity was observed when the animals were placed in a polycarbonate cage.
# The aforementioned tests were scored based on the criteria described in the following documents, followed by calculation of total scores (see Table 4 “Neurological Symptom Evaluation Criteria and Scores”). […]
# [6] = monitored 5 minutes after reperfusion
compound,measurement,setting,value
"C[N+](C)(C)CCOc1cc(C(=O)O)ccc1O.[Cl-] [Compound 27, [2-(5-carboxy-2-hydroxy-phenoxy)-ethyl]-trimethylammonium Chloride]",Incidence of Ventricular Fibrillation (%),[1]; [6],0%
same,Incidence of Ventricular Tachycardia (%),[1]; [6],50.0%
same,Mortality Rate (%),[1]; then reperfusion,0%
same,Ouabain (μg/kg) administered until Cardiac arrest,[2],258 µg/kg
same,Ouabain (μg/kg) administered until appearance of Arrhythmia,[2],180 µg/kg
same,Myocardial Contraction (%) (Based on a value of 100% for prior to ischemia-reperfusion),[3],85%
same,Occurrence of Arrhythmia,[4]; dose 3 mg/kg,No
same,Occurrence of cardiac arrest,[4]; dose 3 mg/kg,No
same,Occurrence of Arrhythmia,[4]; dose 10 mg/kg,No
same,Occurrence of cardiac arrest,[4]; dose 10 mg/kg,No
same,Improvement of neurological symptoms* (total score),"[5]; single i.v. dose 3 mg/kg, 24 hours after occlusion, total score per Table 4, smaller = greater effect",6.75
same,Improvement of motor function (time stayed on rotor rod: seconds),"[5]; single i.v. dose 3 mg/kg, rotor rod 14 rotations per minute, maximum 1 minute",47.5 s
same,Cerebral infarction reduction rate (%),"[5]; single intravenous dose 3 mg/kg immediately before reperfusion, vs physiological saline group, bigger = greater effect",53.7%
